≈ marks a conversion by molar mass, not a printed value. Some results are limits rather than exact numbers.

For assay [1], the system named is RPMI8226 (multiple myeloma). The assay can be described thus: Multiple myeloma cell growth inhibition, MTT, 72 h (Example 6). The class given is cell-based, human. To be noted: Homo sapiens, RPMI-8226; 72 h, MTT, RPMI8226. The method, then:
Multiple myeloma and lymphoma cell lines: RPMI8226 (multiple myeloma), purchased from Fuxiang Bio-tech Co. Ltd., Shanghai, China.
(§1) Reagents: the same as in Example 5.
Obtaining 6000 well-growing leukemia cells and inoculating them into wells of a 96-well cell culture plate. The culture medium is a 1640 cell culture medium containing 10% fetal bovine serum. After adding the tetrandrine derivatives of different concentrations and mixing uniformly, placing the plate in a carbon dioxide cell incubator (5% CO2) at 37° C. and incubated for 72 hours. Then the viable cell concentration is determined by the MTT method.

Assay [2] deals with A549 (human lung cancer). The assay is described as follows: Solid tumor cell growth inhibition, MTT, 72 h (Example 7). Type of assay: cell-based. To be noted: Homo sapiens; 72 h, MTT, A549. The method, then:
(§2) Human solid tumor cell lines: Hep-2 (laryngeal carcinoma), A549 (human lung cancer), CaES-17 (esophageal cancer cell), PC-3 (prostate cancer), CNE (nasopharyngeal carcinoma cell) and SK-OV-3 (ovarian cancer cell), all of which are purchased from China Center For Type Culture Collection; RKO (human colon adenocarcinoma cell), MGC 803 (human gastric cancer cell), MG63 (osteosarcoma), and U87 MG (malignant glioma cell), all of which are purchased from Fuxiang Bio-tech Co. Ltd., Shanghai, China; PANC-1 (pancreatic cancer), Huh? (human liver cancer cell), Becap37 (human breast cancer cell), and Hela (human cervical cancer cell), all of which are donated by Cancer Research Institute of Zhejiang University, China.
as §1
(§3) Obtaining 4000 well-growing human solid tumor cells and inoculating them into wells of a 96-well cell culture plate. The culture medium is DMEM High Glucose cell culture medium containing 10% fetal bovine serum. The plate is placed in a carbon dioxide cell incubator (5% CO2) at 37° C. and incubated for 24 hours. After been added with tetrandrine derivatives of different concentration and mixing uniformly, the plate is placed in a carbon dioxide cell incubator (5% CO2) at 37° C. and incubated for 72 hours. Then the viable cell concentration is determined by the MTT method and the cell viability (%) after drug treatment is calculated. In this experiment, the cell viability of control group (not treated with any compound) is set as 100%.

Assay [3] has as its system MGC 803 (human gastric cancer cell). The assay is described as above. Type of assay: cell-based. To be noted: Homo sapiens. The method, then: as §2, §1, §3
Assay [4] concerns Becap37 (human breast cancer cell). The description is as above. Type of assay: cell-based. The settings on record: Homo sapiens; 72 h, MTT, Becap-37. As to the method: as §2, §1, §3
Assay [5] deals with Huh7 (human liver cancer cell). The assay is described as above. The class given is cell-based. To be noted: Homo sapiens; 72 h, MTT, Huh-7. The method, then: as §2, §1, §3
Assay [6] has as its system Kasumi-1 (acute myeloid leukemia M2 type, AML-M2). The assay can be described thus: Leukemia cell growth inhibition, MTT, 72 h (Example 5). To be noted: Homo sapiens, Kasumi 1. Type of assay: cell-based, human. The source says: (§4) Leukemia cell lines: leukemia cell lines: K562/adr (drug-resistant, chronic myeloid leukemia, CML), NB4 (acute promyelocytic leukemia, AML), Kasumi-1 (acute myeloid leukemia M2 type, AML-M2), Jurkat (acute lymphoblastic leukemia, ALL), all of which are donated by Cancer Research Institute of Zhejiang University, China; and H9 (acute lymphoblastic leukemia, ALL), which is purchased from China Center for Type Culture Collection.
(§5) Reagents: The standard sample of tetrandrine (TTD) is purchased from Ci Yuan Biotechnology Co., Ltd., Shaanxi, China; and the 5-substituted tetrandrine derivatives of the present invention.
(§6) Obtaining 6000 well-growing leukemia cells and inoculating them into wells of a 96-well cell culture plate. The culture medium is a 1640 cell culture medium containing 10% fetal bovine serum. After adding the tetrandrine derivatives of different concentrations and mixing uniformly, placing the plate in a carbon dioxide cell incubator (5% CO2) at 37° C. and incubating for 72 hours. Then the viable cell concentration is determined by the MTT method.

Assay [7] relates to K562/adr (drug-resistant, chronic myeloid leukemia, CML). The assay is described as above. The settings on record: Homo sapiens, K562/Adr; 72 h, MTT. The class given is cell-based, human.
Excerpt: as §4, §5, §6

Assay [8] has as its system H9 (acute lymphoblastic leukemia, ALL). The assay is described as above. The class given is cell-based, human. To be noted: Homo sapiens; 72 h, MTT.
Excerpt: as §4, §5, §6

Assay [9] concerns Jurkat (acute lymphoblastic leukemia, ALL). Described as above. The class given is cell-based, human. To be noted: Homo sapiens, Jurkat; 72 h, MTT.
Excerpt: as §4, §5, §6

For assay [10], the system named is MG63 (osteosarcoma). The assay is described as follows: Solid tumor cell growth inhibition, MTT, 72 h (Example 7). The class given is cell-based, human. To be noted: Homo sapiens; 72 h, MTT, MG-63. As to the method:
as §2, §1, §3

The subject of assay [11] is PANC-1 (pancreatic cancer). Described as above. Type of assay: cell-based, human. To be noted: Homo sapiens; 72 h, MTT, PANC-1. The method, then: as §2, §1, §3
The subject of assay [12] is CaES-17 (esophageal cancer cell). Described as above. Type of assay: cell-based, human. The settings on record: Homo sapiens, CaEs17; 72 h, MTT, CAES-17. The method, then: as §2, §1, §3

With `COc1ccc2cc1Oc1ccc(cc1)C[C@H]1c3cc(c(OC)cc3CCN1C)Oc1c(OC)c(OC)c(CN(C)C)c3c1[C@H](C2)N(C)CC3` [BS-TE-341], the IC50 in [1] is 0.35 µg/mL (≈ 0.515 µM); in assay [2] it was over 16 µg/mL; in assay [3], 9.67 µg/mL (≈ 14.2 µM); in [4], 9.8 µg/mL (≈ 14.4 µM); in [5], 4.71 µg/mL (≈ 6.93 µM); in assay [6] it was 5.64 µg/mL (≈ 8.3 µM). For the same compound, the IC50 is 1.8 µg/mL (≈ 2.65 µM) in assay [7]; 6.87 µg/mL (≈ 10.1 µM) in assay [8]; 9.14 µg/mL (≈ 13.4 µM) in assay [9]; 3.16 µg/mL (≈ 4.65 µM) in assay [10]; over 10 µg/mL in [11]; 4.8 µg/mL (≈ 7.06 µM) in assay [12]. Moreover, the IC90 in [1] was 3.31 µg/mL (≈ 4.87 µM); in [2] it was over 16 µg/mL; in assay [3], 15.1 µg/mL (≈ 22.2 µM); in assay [4], over 10 µg/mL; in [5] it was 7.88 µg/mL (≈ 11.6 µM); in assay [6], 16 µg/mL (≈ 23.5 µM). The IC90 was 16 µg/mL (≈ 23.5 µM) in assay [7]; 22.1 µg/mL (≈ 32.5 µM) in assay [8]; over 16 µg/mL in assay [9]; 9.8 µg/mL (≈ 14.4 µM) in [10]; over 10 µg/mL in assay [11]; 25.8 µg/mL (≈ 37.9 µM) in assay [12].

`COc1ccc2cc1Oc1ccc(cc1)C[C@H]1c3cc(c(OC)cc3CCN1C)Oc1c(OC)c(OC)c(CN)c3c1[C@H](C2)N(C)CC3` [BS-TE-361]: the IC50 in assay [2] is 1.66 µg/mL (≈ 2.55 µM); in [6] it was 0.8 µg/mL (≈ 1.23 µM); in assay [7] it was 1.64 µg/mL (≈ 2.52 µM); in assay [11] it was 5.07 µg/mL (≈ 7.78 µM). For the same compound, the IC90 came to 5.1 µg/mL (≈ 7.82 µM) in [2], 2.78 µg/mL (≈ 4.27 µM) in assay [6], 4 µg/mL (≈ 6.14 µM) in [7] and 10.7 µg/mL (≈ 16.4 µM) in assay [11].

In the case of `COc1ccc2cc1Oc1ccc(cc1)C[C@H]1c3cc(c(OC)cc3CCN1C)Oc1c(OC)c(OC)c(CSc3ccccc3)c3c1[C@H](C2)N(C)CC3` [BS-TE-421], the IC50 in [1] amounted to 0.19 µg/mL (≈ 0.255 µM); in assay [2] it was 3.4 µg/mL (≈ 4.56 µM); in [3], 3.44 µg/mL (≈ 4.62 µM); in assay [4] it was 3.5 µg/mL (≈ 4.7 µM); in [5], 1.52 µg/mL (≈ 2.04 µM); in [6] it was 3.02 µg/mL (≈ 4.05 µM). Moreover, the IC50 in [7] turned out to be 0.9 µg/mL (≈ 1.21 µM); in assay [10] it was 1.08 µg/mL (≈ 1.45 µM); in [11], 3.76 µg/mL (≈ 5.05 µM). Besides, the IC90 came to 1.28 µg/mL (≈ 1.72 µM) in [1]; 8 µg/mL (≈ 10.7 µM) in assay [2]; 4.8 µg/mL (≈ 6.44 µM) in [3]; 4.86 µg/mL (≈ 6.52 µM) in assay [4]; 3.27 µg/mL (≈ 4.39 µM) in assay [5]; 7.51 µg/mL (≈ 10.1 µM) in [6]. The figures for the IC90 in [7], in [10] and in assay [11] were 7.91 µg/mL (≈ 10.6 µM), 4.46 µg/mL (≈ 5.99 µM) and 6.73 µg/mL (≈ 9.03 µM), respectively.

As usually defined, the IC50 is the point on the concentration scale where inhibition reaches its midpoint. High values mean a need for much substance, low ones inhibition by little substance. The IC90 is the point of the concentration-response curve where the effect stands at 90%. Higher therefore signals weaker potency.

The record behind these values is patent US9133207B2, “Tetrandrine derivatives with substituted 5-carbon, preparation method and use thereof” (Hangzhou Bensheng Pharmaceutical Co., Ltd., priority 2011, dated 2015).
